Laboratory results taken from the supplement of paper PMC5908809.

Assays:
[1] = test system: normal primary NK cells, pool 2 (3 donors) (IL-2 2.5 ng/mL); assay: percent inhibition of viability; higher = more inhibition; conditions: 72 h
[2] = test system: normal primary NK cells, pool 3 (3 donors) (IL-2 2.5 ng/mL); assay: as above; conditions: 72 h
IMC-1 (IL-2 20 ng/mL) [3] = assay: as above; conditions: 72 h
[4] = test system: normal NK cells expanded with K562-aAPC; assay: as above; conditions: 72 h, IL-2 2.5 ng/mL
Protocol: (§1)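 Drug sensitivity and resistance testing on K562-aAPC-expanded normal NK cells: 5 concentrations (10-fold steps over a 10,000-fold range), 72 h at 37 °C, viability by CellTiter-Glo normalised to DMSO and benzethonium chloride controls; DSS from the fitted curve.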

[5] = test system: normal NK cells expanded with K562-aAPC; assay: drug sensitivity score (DSS) (DSS units); higher = more sensitive; extreme values may be limits of the assay; conditions: 72 h; IL-2 2.5 ng/mL
Protocol: as §1

[6] = test system: normal primary NK cells, pool 2 (3 donors) (IL-2 2.5 ng/mL); assay: as above; conditions: 72 h
[7] = test system: normal primary NK cells, pool 3 (3 donors) (IL-2 2.5 ng/mL); assay: as above; conditions: 72 h
IMC-1 (IL-2 20 ng/mL) [8] = assay: as above; conditions: 72 h

Cn1cc(C[C@@H](N)C(=O)O)c2ccccc21 [1-methyl-D-tryptophan] (max concentration tested 5000 nM)
percent inhibition of viability [%]
Conditions	0.5 nM	5 nM	50 nM	500 nM	5000 nM
IMC-1 (IL-2 20 ng/mL) [3]	-6.61	-9.96	-5.67	-2.82	0.08
[1]	-6.45	-5.59	-1.81	4.04	6.29
[2]	-7.11	-12.2	0.9	5.49	5.66
[4]	-12.1	-7.01	-8.73	0.95	6.01

Conditions	drug sensitivity score
IMC-1 (IL-2 20 ng/mL) [8]	0
[5]	0
[6]	0
[7]	0

COc1cc(Nc2ncc(F)c(Nc3ccc4c(n3)N(COP(=O)(O)O)C(=O)C(C)(C)O4)n2)cc(OC)c1OC [Fostamatinib] (max concentration tested 2500 nM)
percent inhibition of viability [%]
Conditions	0.25 nM	2.5 nM	25 nM	250 nM	2500 nM
IMC-1 (IL-2 20 ng/mL) [3]	-2.94	-0.51	-4.59	-3.53	-9.62
[1]	-8.88	-12.4	-4.65	-3.71	24.9
[2]	-14	-12.5	-10.8	-5.58	4.31
[4]	-1.89	-6.48	-4.68	-0.77	45.3

Conditions	drug sensitivity score
IMC-1 (IL-2 20 ng/mL) [8]	0.89
[5]	2.26
[6]	0.74
[7]	0

CC(C)NC[C@@H](C(=O)N1CCN(c2ncnc3c2[C@H](C)C[C@H]3O)CC1)c1ccc(Cl)cc1 [Ipatasertib] (max concentration tested 10000 nM)
percent inhibition of viability [%]
Conditions	1 nM	10 nM	100 nM	1000 nM	10000 nM
IMC-1 (IL-2 20 ng/mL) [3]	0.54	2.26	1.36	0.96	9.26
[1]	-8.24	-4.37	0.07	8.84	36
[2]	5.55	1.78	8.02	9.98	29.5
[4]	4.44	5.94	6.06	17.9	39.6

Conditions	drug sensitivity score
IMC-1 (IL-2 20 ng/mL) [8]	0
[5]	3.79
[6]	3.09
[7]	2.08

N[C@@H](Cc1ccc(N(CCCl)CCCl)cc1)C(=O)O [Melphalan] (max concentration tested 12500 nM)
percent inhibition of viability [%]
Conditions	1.25 nM	12.5 nM	125 nM	1250 nM	12500 nM
IMC-1 (IL-2 20 ng/mL) [3]	-3.81	-2.31	-1.39	0.63	0.47
[1]	-5.43	-5.03	-6.41	7.99	1.1
[2]	-7.72	-2.35	-4.09	0.34	3.45
[4]	-1.69	-2.91	-0.58	0.8	6.31

Conditions	drug sensitivity score
IMC-1 (IL-2 20 ng/mL) [8]	0
[5]	0
[6]	0
[7]	0

CN(C)C(=N)NC(=N)N [Metformin] (max concentration tested 100000 nM)
percent inhibition of viability [%]
Conditions	10 nM	100 nM	1000 nM	10000 nM	100000 nM
IMC-1 (IL-2 20 ng/mL) [3]	-3.89	-0.13	-3.1	-1.36	5.51
[1]	-3.45	0.32	10.6	8.75	12.4
[2]	-3.35	0.87	5.02	0.46	8.34
[4]	-6.08	-6.07	-1.23	6.39	2.64

Conditions	drug sensitivity score
IMC-1 (IL-2 20 ng/mL) [8]	0
[5]	0
[6]	1.13
[7]	0

CC(C)N(C[C@H]1O[C@@H](n2cnc3c(N)ncnc32)[C@H](O)[C@@H]1O)[C@H]1C[C@@H](CCc2nc3cc(C(C)(C)C)ccc3[nH]2)C1 [Pinometostat] (max concentration tested 1000 nM)
percent inhibition of viability [%]
Conditions	0.1 nM	1 nM	10 nM	100 nM	1000 nM
IMC-1 (IL-2 20 ng/mL) [3]	-9.34	-4.07	-2.87	-4.72	3.86
[1]	-6.45	6.92	6.49	-0.47	0.82
[2]	-1.26	13	2.22	1.46	-1.92
[4]	-0.7	-1.47	-2.36	3.36	12.5

Conditions	drug sensitivity score
IMC-1 (IL-2 20 ng/mL) [8]	0
[5]	0.26
[6]	0
[7]	0
